Experiments:
Pfeiffer (EZH2 A677G) = assay: In vitro 50% growth inhibition (GI50), MTT/CCK8, Pfeiffer cells; assay type: cell-based, Human; conditions: for GI50: Homo sapiens, Pfeiffer, 240 h, Drug treatment for 10 days; for growth inhibitory activity / GI50 level against Pfeiffer, in words: EZH2 A677G mutant cells Pfeiffer
Text: (§1) In the present invention, a representative tumor cell line was selected to determine the cell growth inhibition activity of the present compound. Cell culture conditions and methods were in accordance with the requirements for each cell lines. The cells were subcultured in vitro for less than 3 generations each time, and as required, monoclone purification and identification of cell lines could be carried out.
(§2) The cell culture media used were RPMI1640 (Gibco) comprising 5-20% of fetal bovine serum (Gibco), 1% of double-antibiotic and 2 mM of glutamine.
(§3) Suspension culture cells were collected by centrifugation (1700 rpm, 3 minutes), and the supernatant was discarded and the cells were counted. According to each cell growth cycle, different concentrations of cells were prepared (1-10×10^4 cells per ml) and added to 96-well plates (Corning) with 100 μl per well, and then incubated overnight at 37° C., 5% CO2. The next day, the test compound was added to the cultured cells (2 wells in parallel). The final concentration of the solvent was less than 1/1,000. The cells were further cultured for 6 to 12 days and assayed by MTT.
(§4) The compound was stored at a concentration of 10 mM at −20° C. and diluted to two-fold or 10-fold series prior to use.
(§5) For the suspension culture cells, CCK8 was directly added to 10% of the final concentration. The cells were continually incubated for […].
(§6) The experiments were repeated 3 times and a statistical analysis of data was conducted.

SU-DHL-8 (EZH2 WT) = assay: In vitro 50% growth inhibition (GI50), MTT/CCK8, SU-DHL-8 cells; assay type: cell-based; conditions: Homo sapiens, SU-DHL-8, 144 h; Drug treatment for 6 days
Text: as §1, §2, §3, §4, §5, §6

Karpas-422 (EZH2 Y641N) = assay: In vitro 50% growth inhibition (GI50), MTT/CCK8, Karpas-422 cells; assay type: cell-based; conditions: Homo sapiens, KARPAS-422, 144 h; Drug treatment for 6 days
Text: as §1, §2, §3, §4, §5, §6

SMILES	GI50 (SU-DHL-8 (EZH2 WT))	GI50 (Karpas-422 (EZH2 Y641N))	GI50 (Pfeiffer (EZH2 A677G))	growth inhibitory activity / GI50 level against Pfeiffer, in words (Pfeiffer (EZH2 A677G))
C=CC(=O)N1CCC(N(CC)c2cc(-c3ccc(CN4CC(OC)C4)cc3)cc(C(=O)NCc3c(C)cc(C)[nH]c3=O)c2C)CC1 [Example 76, N-(4,6-dimethyl-2-oxo-1,2-dihydro-pyridin-3-ylmethyl)-5-[(1-acryloyl-piperidin-4-yl)-ethyl-amino]-4-methyl-4′-(3-methoxy-1-azetidinylmethyl)-[1,1′-biphenyl]-3-carboxamide]	> 1 µM	0.01 to 0.1 µM	0.001 to 0.01 µM	–
C=CC(=O)N1CCC(N(CC)c2cc(-c3ccc(CN4CCC(OC)CC4)cc3)cc(C(=O)NCc3c(C)cc(C)[nH]c3=O)c2C)CC1 [Example 65, N-(4,6-dimethyl-2-oxo-1,2-dihydro-pyridin-3-ylmethyl)-5-[(1-acryloyl-piperidin-4-yl)-ethyl-amino]-4-methyl-4′-(4-methoxypiperidin-1-ylmethyl)-[1,1′-biphenyl]-3-carboxamide]	> 1 µM	0.01 to 0.1 µM	< 0.001 µM	subnanomolar level
C=CC(=O)N1CCC(N(CC)c2cc(Br)cc(C(=O)NCc3c(C)cc(C)[nH]c3=O)c2C)CC1 [Example 6, 3-[(1-acryloyl-piperidin-4-yl)-ethyl-amino]-5-bromo-N-(4,6-dimethyl-2-oxo-1,2-dihydro-pyridin-3-ylmethyl)-2-methyl-benzamide]	> 1 µM	0.01 to 0.1 µM	0.001 to 0.01 µM	–
C=CC(=O)N1CCC(N(C)c2cc(Br)cc(C(=O)NCc3c(C)cc(C)[nH]c3=O)c2C)C1 (stereo not drawn) [Example 10, 3-[(1-acryloyl-pyrrolidin-3-yl)-methyl-amino]-5-bromo-N-(4,6-dimethyl-2-oxo-1,2-dihydro-pyridin-3-ylmethyl)-2methyl-benzamide]	> 1 µM	> 1 µM	0.01 to 0.1 µM	–
C=CC(=O)N1CCC(N(CC)c2cc(-c3cccc(CN4CCOCC4)c3)cc(C(=O)NCc3c(C)cc(C)[nH]c3=O)c2C)CC1 [Example 70, N-(4,6-dimethyl-2-oxo-1,2-dihydro-pyridin-3-ylmethyl)-5-[(1-acryloyl-piperidin-4-yl)-ethyl-amino]-4-methyl-3′-(morpholin-4-ylmethyl)-[1,1′-biphenyl]-3-carboxamide]	> 1 µM	0.01 to 0.1 µM	0.001 to 0.01 µM	–
C=CC(=O)N1CCC(N(CC)c2cc(-c3ccc(CN4CCOCC4)cc3)cc(C(=O)NCc3c(C)cc(C)[nH]c3=O)c2C)C1 (stereo not drawn) [Example 20, N-(4,6-dimethyl-2-oxo-1,2-dihydro-pyridin-3-ylmethyl)-5-[(1-acryloyl-pyrrolidin-3-yl)-ethyl-amino]-4′-(morpholin-4-ylmethyl)-4-methyl-biphenyl-3-carboxamide]	> 1 µM	0.1 to 1 µM	0.001 to 0.01 µM	–
C=CC(=O)N1CCC(N(CC)c2cc(-c3ccc(CN4CCN(C5CCOCC5)CC4)cc3)cc(C(=O)NCc3c(C)cc(C)[nH]c3=O)c2C)CC1 [Example 89, N-(4,6-dimethyl-2-oxo-1,2-dihydro-pyridin-3-ylmethyl)-5-[(1-acryloyl-piperidin-4-yl)-ethyl-amino]-4-methyl-4′-[4-(tetrahydropyran-4-yl)-piperazin-1-ylmethyl]-[1,1′-biphenyl]-3-carboxamide]	> 1 µM	0.01 to 0.1 µM	< 0.001 µM	subnanomolar level
C=CC(=O)N1CCC(N(CC)c2cc(-c3ccc(CN4CCC(OCC)CC4)cc3)cc(C(=O)NCc3c(C)cc(C)[nH]c3=O)c2C)CC1 [Example 88, N-(4,6-dimethyl-2-oxo-1,2-dihydro-pyridin-3-ylmethyl)-5-[(1-acryloyl-piperidin-4-yl)-ethyl-amino]-4-methyl-4′-(4-ethoxypiperidin-1-ylmethyl)-[1,1′-biphenyl]-3-carboxamide]	> 1 µM	0.01 to 0.1 µM	< 0.001 µM	subnanomolar level
C=CC(=O)N1CCC(N(CC)c2cc(Cl)cc(C(=O)NCc3c(C)cc(C)[nH]c3=O)c2C)C1 (stereo not drawn) [Example 3, 3-[(1-acryloyl-pyrrolidin-3-yl)-ethyl-amino]-5-chloro-N-(4,6-dimethyl-2-oxo-1,2-dihydro-pyridin-3-ylmethyl)-2-methyl-benzamide]	> 1 µM	0.01 to 0.1 µM	0.001 to 0.01 µM	–
C=CC(=O)N1CCC(N(CC)c2cc(-c3ccc(CN(C)C)cc3)cc(C(=O)NCc3c(C)cc(C)[nH]c3=O)c2C)C1 (stereo not drawn) [Example 19, N-(4,6-dimethyl-2-oxo-1,2-dihydro-pyridin-3-ylmethyl)-5-[(1-acryloyl-pyrrolidin-3-yl)-ethyl-amino]-4′-(dimethylaminomethyl)-4-methyl-biphenyl-3-carboxamide]	> 1 µM	0.1 to 1 µM	0.01 to 0.1 µM	–
C=CC(=O)N1CCC(N(CC)c2cc(-c3cccc(CN4CCCCC4)c3)cc(C(=O)NCc3c(C)cc(C)[nH]c3=O)c2C)C1 (stereo not drawn) [Example 31, N-(4,6-dimethyl-2-oxo-1,2-dihydro-pyridin-3-ylmethyl)-5-[(1-acryloyl-pyrrolidin-3-yl)-ethyl-amino]-4-methyl-3′-(piperidin-1-ylmethyl)-[1,1′-biphenyl]-3-carboxamide]	> 1 µM	0.01 to 0.1 µM	0.001 to 0.01 µM	–
C=CC(=O)N1CCC(N(CC)c2cc(-c3cccc(CN4CCOCC4)c3)cc(C(=O)NCc3c(C)cc(C)[nH]c3=O)c2C)C1 (stereo not drawn) [Example 30, N-(4,6-dimethyl-2-oxo-1,2-dihydro-pyridin-3-ylmethyl)-5-[(1-acryloyl-pyrrolidin-3-yl)-ethyl-amino]-4-methyl-3′-(morpholin-4-yl)-methyl-[1,1′-biphenyl]-3-carboxamide]	> 1 µM	0.01 to 0.1 µM	0.001 to 0.01 µM	–
C=CC(=O)N1CCC(N(CC)c2cc(-c3ccc(CN4CCC(N5CCOCC5)CC4)cc3)cc(C(=O)NCc3c(C)cc(C)[nH]c3=O)c2C)CC1 [Example 81]	> 1 µM	0.01 to 0.1 µM	0.001 to 0.01 µM	–

More lines, main results first:

GI50 (SU-DHL-8 (EZH2 WT))	GI50 (Karpas-422 (EZH2 Y641N))	SMILES	GI50 (Pfeiffer (EZH2 A677G))	growth inhibitory activity / GI50 level against Pfeiffer, in words (Pfeiffer (EZH2 A677G))
> 1 µM	0.01 to 0.1 µM	C=CC(=O)N1CCC(N(CC)c2cc(F)cc(C(=O)NCc3c(C)cc(C)[nH]c3=O)c2C)C1 (stereo not drawn) [Example 2, 3-[(1-acryloyl-pyrrolidin-3-yl)-ethyl-amino]-5-fluoro-N-(4,6-dimethyl-2-oxo-1,2-dihydro-pyridin-3-ylmethyl)-2-methyl-benzamide]	0.01 to 0.1 µM	–
> 1 µM	> 1 µM	C=CC(=O)N1CCC(N(CCCC)c2cc(Br)cc(C(=O)NCc3c(C)cc(C)[nH]c3=O)c2C)C1 (stereo not drawn) [Example 9, 3-[(1-acryloyl-pyrrolidin-3-yl)-butyl-amino]-5-bromo-N-(4,6-dimethyl-2-oxo-1,2-dihydro-pyridin-3-ylmethyl)-2methyl-benzamide]	0.01 to 0.1 µM	–
> 1 µM	0.01 to 0.1 µM	C=CC(=O)N1CCC(N(CC)c2cc(-c3ccc(CN4CCOCC4)c(F)c3)cc(C(=O)NCc3c(C)cc(C)[nH]c3=O)c2C)CC1 [Example 62, N-(4,6-dimethyl-2-oxo-1,2-dihydro-pyridin-3-ylmethyl)-5-[(1-acryloyl-piperidin-4-yl)-ethyl-amino]-3′-fluoro-4-methyl-4′-(morpholin-4-ylmethyl)-[1,1′-biphenyl]-3-carboxamide]	0.001 to 0.01 µM	–
> 1 µM	0.01 to 0.1 µM	C=CC(=O)N1CCC(N(CC)c2cc(C#CCN3CCOCC3)cc(C(=O)NCc3c(C)cc(C)[nH]c3=O)c2C)C1 (stereo not drawn) [Example 51, N-(4,6-dimethyl-2-oxo-1,2-dihydro-pyridin-3-ylmethyl)-3-[(1-acryloyl-pyrrolidin-3-yl)-ethyl-amino]-2-methyl-5-[3-(morpholin-4-yl)-propyn-1-yl]-benzamide]	0.001 to 0.01 µM	–
> 1 µM	0.01 to 0.1 µM	C=CC(=O)N1CCC(N(CC)c2cc(-c3ccc(CN4CCOCC4)c(Cl)c3)cc(C(=O)NCc3c(C)cc(C)[nH]c3=O)c2C)CC1 [Example 71, N-(4,6-dimethyl-2-oxo-1,2-dihydro-pyridin-3-ylmethyl)-5-[(1-acryloyl-piperidin-4-yl)-ethyl-amino]-3′-chloro-4-methyl-4′-(morpholin-4-ylmethyl)-[1,1′-biphenyl]-3-carboxamide]	0.001 to 0.01 µM	–
> 1 µM	0.01 to 0.1 µM	C=CC(=O)N1CCC(N(CC)c2cc(-c3ccc(N4CCN(C)CC4)nc3)cc(C(=O)NCc3c(C)cc(C)[nH]c3=O)c2C)C1 (stereo not drawn) [Example 53, N-(4,6-dimethyl-2-oxo-1,2-dihydro-pyridin-3-ylmethyl)-3-[(1-acryloyl-pyrrolidin-3-yl)-ethyl-amino]-2-methyl-5-[6-(4-methylpiperazin-1-yl)-pyridin-3-yl]-benzamide]	0.001 to 0.01 µM	–
> 1 µM	0.01 to 0.1 µM	C=CC(=O)N1CCC(N(CC)c2cc(-c3ccc(CN4CCCCC4)cc3)cc(C(=O)NCc3c(C)cc(C)[nH]c3=O)c2C)C1 (stereo not drawn) [Example 18, N-(4,6-dimethyl-2-oxo-1,2-dihydro-pyridin-3-ylmethyl)-5-[(1-acryloyl-pyrrolidin-3-yl)-ethyl-amino]-4′-(piperidin-1-ylmethyl)-4-methyl-biphenyl-3-carboxamide]	0.001 to 0.01 µM	–

Reference: patent publication US11214561B2, “Histone methyltransferase EZH2 inhibitor, preparation method and pharmaceutical use thereof” (ANCUREALL PHARMACEUTICAL (SHANGHAI) CO., LTD., priority 2017, dated 2022)
